One compound from patent US11369614B2, “Telodendrimers with riboflavin moieties and nanocarriers and methods of making and using same” (priority 2017, dated 2022) can be followed below.

The test system of the experiment is SKOV3 xenograft tumor. Description: In vivo and ex vivo tumor targeting by fluorescence imaging. Details: species or system nude mice. Conditions: i.v. Here is the method: Raji lymphoma, MDA-MB-231, and SKOV3 xenograft tumor bearing mice model were established by subcutaneous injection of 1×10^7 cells in 100 μL of Matrigel and PBS (1:1 v/v) at the right or left flank of female nude mice aged 4-6 weeks. […] Then the DiD-DOX co-loaded Rf-containing nanoformulations were filtered with 0.22 am sterile filter. Free DiD in PBS was used as the control group. All the formulations were intravenously injected through tail vein. The mice were anaesthetized and imaged by IVIS® (In vivo Imaging System) 200 (perkinElmer) at 0.5, 1, 2, 4, 8, 24, 48, 72 h different time points with the ex/em 625/700 nm. Finally, the mice were euthanized, tumor and all the major organs were taken out for ex vivo imaging. Living Image software (Caliper Life Sciences) were used to define and measure the fluorescence intensity in the place of interest.
Mice were euthanized in the following day. […] The nuclei were stained by DAPI.

Take `CCCCCCCCCCCCCCCCCCN1/C(=C/C=C/C=C/C2=[N+](CCCCCCCCCCCCCCCCCC)c3ccccc3C2(C)C)C(C)(C)c2ccccc21.[O-][Cl+3]([O-])([O-])[O-]` [free DiD, 1,1′-dioctadecyl-3,3,3,3′,3′-tetramethylindodicarbocyanine perchlorate]: the “tumor accumulation (in vivo imaging)” value is “No specific tumor accumulation”.
